Data reported in patent publication US10787472B2, “Prodrugs of pyridone amides useful as modulators of sodium channels” (VERTEX PHARMACEUTICALS INCORPORATED, priority 2013, dated 2020).
Each block holds one molecule with its values, some of them ahead of it.

Tests used:
[1] = Monkey oral pharmacokinetic study; type: in vivo, cynomolgus monkeys
Method: (§1) Before extraction, plasma samples were diluted using blank plasma at an appropriate dilution factor, as necessary, depending on the dose level. […] After centrifugation, the supernatant extract (10 μL) was injected onto the LC/MS/MS system. The HPLC system included a Phenomenex Synergy Kinetix C8 column, 2.6 micron, 2.0 mm diameter×75 mm long eluted with a gradient mobile phase consisting of 0.1% formic acid in water or in acetonitrile.
(§2) The analytes were detected by MS/MS with Electrospray Ionization (ESI) in the mode of multiple reaction monitoring (MRM). […] The intra-day and inter-day assay accuracy was within 20% of the nominal values. The intra- and inter-day assay variability was ≤20%.
(§3) Key pharmacokinetic parameters such as AUCall, AUCextra, Cmax, tmax, Cl, Vss and t1/2 were determined.
(§4) Descriptive statistical data of pharmacokinetic parameters were calculated, including the mean, standard deviation (SD), using Watson LIMS version 7.4 SP3 or Microsoft Excel 2000.
Male or female cynomolgus monkeys (n=3 per dose group) were administered single nominal PO doses of 10, 40, 100, 300, 500, 750 and 1000 mg/kg of compound 9 by gavage. Compound 9 was formulated in 30% PEG400 and 10% TPGS in water or 5% TPGS, 5% PVP-K30 in 50 mM Citrate, pH 5. Animals were fasted overnight prior to dosing, and were fed two hours post dose. Water was available before and after dosing. […]

[2] = Rat oral pharmacokinetic study; type: in vivo, Sprague Dawley rats; details: for Cmax: male rat, analyte 9a in plasma, 5% TPGS/5% PVP-K30/50 mM Citrate pH5, mean ± SD, N=3
Method: as §1, §2, §3, §4
Groups of male and female Sprague Dawley rats (n=3 per dose group) were administered single nominal oral doses of 10, 100, 400, 640, 1000 mg/kg (for males) and 30, 100, 300, 640, 1000 mg/kg (for females) of compound 9 by gavage. Compound 9 was formulated in either 30% PEG400 and 10% TPGS in water or 5% TPGS, 5% PVP-K30 in 50 mM Citrate, pH 5. Animals had free access to food and water before and after dosing. Blood samples (approximately 0.25 mL each) were collected via a carotid artery catheter prior to dosing and at 0.25, 0.5, 1, 2, 4, 8, 12, 24, 48 and 72 hours post dose. Each blood sample was collected into a tube that was kept on wet ice and contained potassium EDTA as the anticoagulant. Plasma was separated and stored at approximately −70° C. until analysis.

[3] = Rat IV pharmacokinetic study; type: in vivo, Sprague Dawley rats; details: male rat, after IV bolus 1 mg/kg compound 9; LLOQ 2.5 ng/mL
Method: as §1, §2, §3, §4
Male Sprague Dawley rats (n=3) were administered a single nominal IV bolus dose of 1 mg/kg of compound 9 via a jugular vein cannula. […] Animals had free access to food and water before and after dosing. Blood samples (approximately 0.25 mL each) were collected via a carotid artery catheter prior to dosing and at 5 min, 10 min, 0.25, 0.5, 1, 2, 4, 8, 12, 24 hours post dose. […]

[4] = Aqueous solubility study; type: physicochemical; details: ambient conditions, 24 hours
Method: The aqueous solubility of compound 9 and 9a were determined according to the following procedure. Solubility data was determined at ambient conditions by equilibrating the compound with water on a shaking bed for 24 hours, followed by centrifugation and separation of the saturated solutions. The pH value of each media was measured before centrifugation, and the saturated solutions were assayed by HPLC.

[5] = Chemical and physical stability of crystalline Form B (XRPD, HPLC impurity profile, appearance); type: physicochemical
Text: Chemically and physically stable means no changes were observed on the X-ray powder diffraction and HPLC impurity profiles (e.g., less than 0.2% variance) and there were no observed changes in physical appearance of the samples.

- in vivo conversion of prodrug to parent compound ([1]; monkeys): converted in vivo into compound 9a
- in vivo conversion of prodrug to parent compound ([2]; rats): converted in vivo into compound 9a
Structure (SMILES): Cc1cc(F)ccc1Oc1cc(C(F)(F)F)ccc1C(=O)Nc1ccn(COP(=O)(O)O)c(=O)c1 [Compound 9, (4-(2-(4-fluoro-2-methylphenoxy)-4-(trifluoromethyl)benzamido)-2-oxopyridin-1(2H)-yl)methyl dihydrogen phosphate]
- plasma concentrations of compound 9 ([1]; monkey, after PO compound 9 10-1000 mg/kg, LLOQ 10.0 to 25.0 ng/mL): below LLOQ for the majority of the samples
- plasma concentrations of compound 9 ([2]; rat, after PO compound 9 10-1000 mg/kg, LLOQ 2.5 to 25 ng/mL): below LLOQ for the majority of the samples
- plasma concentrations of compound 9 [3]: below LLOQ for the majority of the samples

- Solubility ([4]; pH 1.2, crystalline): <1 µg/mL
- Solubility ([4]; water, pH 6.0, crystalline): <1 µg/mL
- Cmax ([2]; Sprague-Dawley, compound 9 PO 100 mg/kg): 1670 ± 1.9 ng/mL
- Cmax ([2]; compound 9 PO 1000 mg/kg): 4540 ± 910 ng/mL
Structure (SMILES): Cc1cc(F)ccc1Oc1cc(C(F)(F)F)ccc1C(=O)Nc1cc[nH]c(=O)c1 [Compound 9a, 2-(4-fluoro-2-methylphenoxy)-N-(2-oxo-1,2-dihydropyridin-4-yl)-4-(trifluoromethyl)benzamide]

Structure (SMILES): Cc1cc(F)ccc1Oc1cc(C(F)(F)F)ccc1C(=O)Nc1ccn(COP(=O)(O)O)c(=O)c1 [crystalline Form B, (4-(2-(4-fluoro-2-methylphenoxy)-4-(trifluoromethyl)benzamido)-2-oxopyridin-1(2H)-yl)methyl dihydrogen phosphate]
- chemical and physical stability ([5]; 5° C./dry, 40° C./dry, 25° C. with RH up to 60%, 40° C. with RH up to 75%): chemically and physically stable for at least one month
- chemical and physical stability ([5]; open dish 40° C., 40° C./RH up to 75%, 25° C./RH up to 60%, closed dish 5° C. with desiccator): chemically and physically stable for at least three months
